This note sets out measurements from patent publication US20240043444A1, “METHODS FOR TREATING SPINOCEREBELLAR ATAXIA TYPE 3” (PTC Therapeutics, Inc., priority 2021, published 2024).

A value given as a limit tells only on which side of the number the result lay.

Broadly, the IC50 is the concentration that inhibits the measured activity by half.

Experiment [1] deals with Endogenous Total ATXN3 (tATXN3) Protein. In words: Endogenous Total ATXN3 (tATXN3) Protein Assay (MSD immunoassay of cell lysates). The format is cell-based. The conditions noted are these: cells incubated with compound 48 h; 7-point concentration curve; MSD plate readout. The protocol:
Meso Scale Discovery (MSD) 96-well or 384-well plates were coated overnight at 4° C. with Ataxin 3 mouse monoclonal antibody (Invitrogen, MA3-082) at a concentration of […] in PBS (30 μL per well). Plates were then washed three times with 300 μL wash buffer (0.05% TWEEN®-20, polyethylene glycol sorbitan monolaurate, in PBS) and blocked (Meso Scale Diagnostics, R93BA-1; 5% BSA in PBS) for 2 h at room temperature with rotational shaking and then washed three times with wash buffer.
(§1) Test compounds were serially diluted 3.16-fold in 100% DMSO to generate a 7-point concentration curve. Aliquots of 0.5 μL of diluted compounds were transferred to a 96-well flat bottom plate by a liquid handler. An aliquot of 0.5 μL DMSO was also transferred to separate wells and used as controls. Duplicate samples were set up for each compound concentration and for the DMSO control.
Cells were thawed and incubated in cell culture media (DMEM, 10% FBS, and 1% antibiotic cocktail) for 72 h. Cells were trypsinized, counted, and re-suspended to a concentration of 100,000 cells/mL in cell culture media. A 100 μL aliquot of the cell suspensions were plated at 10,000 cells per well in the compound containing 96 well microtiter plate and incubated for in a cell culture incubator (37° C., 5% CO2, 100% relative humidity). After 48 h, the medium was removed and 50-100 μL of lysis buffer (Meso Scale Diagnostics, R60TX-2) containing 1× halt protease inhibitor cocktail of (Thermo Scientific, Halt™ Protease Inhibitor Cocktail, 78430) per well was added to cells to provide a “cell lysate”. The plate was placed on a shaker at 4° C. for 30 minutes, then stored at −80° C.
Cell lysate samples (25 μL) were transferred to the antibody-coated MSD plate and incubated overnight at 4° C. After removal of the lysates, the plate was washed three times with wash buffer, and 25 μL of Ataxin 3 recombinant rabbit monoclonal antibody (Invitrogen, #702788) secondary antibody (diluted to 0.25 μg/mL in 0.05% TWEEN®-20 in blocking buffer) was added to each well and incubated with shaking for 1-2 h at room temperature. Following incubation with the secondary antibody, the wells were rinsed with wash buffer and then 25 μL of Anti Rabbit Antibody Goat SULFO-TAG Labeled (Meso Scale Diagnostics, R32AB-1) detecting antibody (diluted to 0.25 μg/mL in 0.05% TWEEN®-20 in blocking buffer) was added to each well and incubated with shaking for 1 h at room temperature. After rinsing three times with wash buffer, 150 μL of Read Buffer T with surfactant (tris-based buffer containing tripropylamine, Meso Scale Diagnostics, R92TC-1) were added to each empty well, and the plate was imaged on a SI 6000 imager (MSD) according to manufacturers' instructions provided for 96- or 384-well plates.

Experiment [2] deals with ATXN3 Pre-mRNA (exon 4 skipping). The experiment in a line: RT-qPCR Assay to Quantify Exon 4 Skipping in ATXN3 Pre-mRNA in Cells. The format is cell-based. The conditions noted are these: cells incubated with compound 24 h, normalised to GAPDH, 7-point concentration curve. The protocol: as §1
Cells were thawed and incubated in cell culture media (DMEM, 10% FBS, and 1% antibiotic cocktail) for 72 h. Cells were trypsinized, counted, and re-suspended to a concentration of 100,000 cells/mL in cell culture media. A 100 μL aliquot of the cell suspensions were plated at 10,000 cells per well in the compound containing 96 well microtiter plate and incubated for in a cell culture incubator (37° C., 5% CO2, 100% relative humidity).
After 24 h, media was aspirated from the cells and 50 μL of the RCL2 lysis buffer (10 mM Tris-HCL pH 7.4, 150 mM NaCl, 0.33% IGEPAL® CA-630) was added to each well and incubated at room temperature for 1 min. Chilled nuclease free water (50 μL per well) was added and the plates were immediately transferred on ice. After 1 min on ice, plates were frozen at −80° C. overnight.
Preparation of RT-qPCR Reaction Mixture:
An aliquot of 2 μL/well of the cell lysates was transferred using the liquid handler to the Armadillo 384-Well PCR plate containing 8 μL/well of the RT-qPCR reaction mixture that was prepared as detailed above. The plates were then sealed with MicroAmp™ Optical Adhesive Film followed by spinning down for 1 min and placed in the CFX384 thermocycler (BioRad).
The RT-qPCR was carried out at the following temperatures for the indicated time: • Step 1: 48° C. (30 min) • Step 2: 95° C. (10 min) • Step 3: 95° C. (15 sec) • Step 4: 60° C. (1 min); then, repeated Steps 3 and 4 for a total of 40 cycles.
The percent exon 4 skipping was calculated for each dose of compound treatment using Equations 1 and 2.
Data were fit to a dose response curve and the IC50 was interpolated using XLfit® statistical and curve fitting package.
An IC50 value between >2.0 μM and ≤3.0 μM is indicated by one star (*). […] IC50 value between >0.5 μM and ≤1.0 μM is indicated by four stars (****). An IC50 value ≤0.5 μM is indicated by five stars (*****).

On to `Cc1c(CCCN)sc2c(NCc3ccco3)nc(Cl)nc12` [Cpd 67, 6-(3-aminopropyl)-2-chloro-N-[(furan-2-yl)methyl]-7-methylthieno[3,2-d]pyrimidin-4-amine], for which the “IC50 (average, total ATXN3 protein)” value in experiment [1] was “inactive”. Also, the “IC50 (exon 4 skipping in ATXN3 pre-mRNA)” value in experiment [2] is “inactive”.
Take `Cc1c(C[C@H](C)N)sc2c(NCc3nccs3)nc(Cl)nc12` [Cpd 29, 6-[(2S)-2-aminopropyl]-2-chloro-7-methyl-N-[(1,3-thiazol-2-yl)methyl]thieno[3,2-d]pyrimidin-4-amine]: the concentration for half-maximal inhibition (IC50) in experiment [1] and in experiment [2] was at most 500 nM in each case.
With `Cc1c(C[C@H](C)N)sc2c(NCc3cccs3)nc(Cl)nc12` [Cpd 28, 6-[(2S)-2-aminopropyl]-2-chloro-7-methyl-N-[(thiophen-2-yl)methyl]thieno[3,2-d]pyrimidin-4-amine], the IC50 in experiment [1] and in experiment [2] was at most 500 nM throughout.
Turning to `Cc1c(C[C@H](C)N)sc2c(NCc3sccc3F)nc(Cl)nc12` [Cpd 90, 6-[(2S)-2-aminopropyl]-2-chloro-N-[(3-fluorothiophen-2-yl)methyl]-7-methylthieno[3,2-d]pyrimidin-4-amine], the IC50 in experiment [1] and in experiment [2] was at most 500 nM throughout.
With `Cc1c(C[C@@H](N)CO)sc2c(NCc3cccs3)nc(Cl)nc12` [Cpd 56, (2R)-2-amino-3-(2-chloro-7-methyl-4-{[(thiophen-2-yl)methyl]amino}thieno[3,2-d]pyrimidin-6-yl)propan-1-ol], the IC50 in experiment [1] and in experiment [2] was at most 500 nM in each case.
`Cc1c(C[C@H](C)N)sc2c(NCc3ccno3)nc(Cl)nc12` [Cpd 39, 6-[(2S)-2-aminopropyl]-2-chloro-7-methyl-N-[(1,2-oxazol-5-yl)methyl]thieno[3,2-d]pyrimidin-4-amine]: the IC50 in experiment [1] and in experiment [2] was at most 500 nM each time.
Take `Cc1c(C[C@H](C)N)sc2c(NCc3cccnc3F)nc(Cl)nc12` [Cpd 60, 6-[(2S)-2-aminopropyl]-2-chloro-N-[(2-fluoropyridin-3-yl)methyl]-7-methylthieno[3,2-d]pyrimidin-4-amine]: the results for the half-inhibitory concentration (IC50) in experiment [1] and in experiment [2] were over 2000 nM and 2000 to 3000 nM, respectively.
`Cc1c(C[C@H](C)N)sc2c(NCc3ccncc3F)nc(Cl)nc12` [Cpd 35, 6-[(2S)-2-aminopropyl]-2-chloro-N-[(3-fluoropyridin-4-yl)methyl]-7-methylthieno[3,2-d]pyrimidin-4-amine]: the IC50 in experiment [1] and in experiment [2] was at most 500 nM throughout.
Regarding `Cc1ccc(CNc2nc(Cl)nc3c(C)c(C[C@H](C)N)sc23)o1` [Cpd 24, 6-[(2S)-2-aminopropyl]-2-chloro-7-methyl-N-[(5-methylfuran-2-yl)methyl]thieno[3,2-d]pyrimidin-4-amine], the IC50 in experiment [1] is over 2000 nM; in experiment [2], 1500 to 2000 nM.
For `Cc1c(C[C@H](C)N)sc2c(NCc3ncc(F)s3)nc(Cl)nc12` [Cpd 93, 6-[(2S)-2-aminopropyl]-2-chloro-N-[(5-fluoro-1,3-thiazol-2-yl)methyl]-7-methylthieno[3,2-d]pyrimidin-4-amine], in that order: at most 500 nM and at most 500 nM.
For `Cc1c(C[C@H](C)NC2CCC2)sc2c(NCc3ccco3)nc(Cl)nc12` [Cpd 78, 2-chloro-6-[(2S)-2-(cyclobutylamino)propyl]-N-[(furan-2-yl)methyl]-7-methylthieno[3,2-d]pyrimidin-4-amine], in that order: 1500 to 2000 nM and 1000 to 1500 nM.
As for `Cc1c(C[C@H](C)N)sc2c(NCc3ccc(F)s3)nc(Cl)nc12` [Cpd 33, 6-[(2S)-2-aminopropyl]-2-chloro-N-[(5-fluorothiophen-2-yl)methyl]-7-methylthieno[3,2-d]pyrimidin-4-amine], the IC50 in experiment [1] and in experiment [2] was at most 500 nM in each case.
For `Cc1c(C[C@@H]2CCOC(=O)N2)sc2c(NCc3ccco3)nc(Cl)nc12` [Cpd 52, (4S)-4-[(2-chloro-4-{[(furan-2-yl)methyl]amino}-7-methylthieno[3,2-d]pyrimidin-6-yl)methyl]-1,3-oxazinan-2-one], in experiment [1], the IC50 was over 2000 nM. The “IC50 (exon 4 skipping in ATXN3 pre-mRNA)” value in experiment [2] is “inactive”.
`C[C@H](N)Cc1sc2c(NCc3cccs3)nc(Cl)nc2c1Br` [Cpd 82, 6-[(2S)-2-aminopropyl]-7-bromo-2-chloro-N-[(thiophen-2-yl)methyl]thieno[3,2-d]pyrimidin-4-amine]: the 50% inhibitory concentration (IC50) in experiment [1] and in experiment [2] was at most 500 nM in each case.
Regarding `Cc1c(C[C@H](C)N)sc2c(NCc3cnco3)nc(Cl)nc12` [Cpd 75, 6-[(2S)-2-aminopropyl]-2-chloro-7-methyl-N-[(1,3-oxazol-5-yl)methyl]thieno[3,2-d]pyrimidin-4-amine], the IC50 lay in the range of 1000 to 1500 nM in experiment [1] and 500 to 1000 nM in experiment [2].
For `Cc1c(C[C@H](C)N)sc2c(NCc3ccco3)nc(Cl)nc12` [Cpd 12, 6-[(2S)-2-aminopropyl]-2-chloro-N-[(furan-2-yl)methyl]-7-methylthieno[3,2-d]pyrimidin-4-amine], in that order: at most 500 nM and at most 500 nM.
For the molecule `CC(C)(C)[C@H](N)Cc1cc2nc(Cl)nc(NCc3ccco3)c2s1` [Cpd 7, 6-[(2R)-2-amino-3,3-dimethylbutyl]-2-chloro-N-[(furan-2-yl)methyl]thieno[3,2-d]pyrimidin-4-amine], the “IC50 (average, total ATXN3 protein)” value in experiment [1] is “inactive”. Moreover, the “IC50 (exon 4 skipping in ATXN3 pre-mRNA)” value in experiment [2] is “inactive”.
As to `Cc1cnc(CNc2nc(Cl)nc3c(C)c(C[C@H](C)N)sc23)s1` [Cpd 31, 6-[(2S)-2-aminopropyl]-2-chloro-7-methyl-N-[(5-methyl-1,3-thiazol-2-yl)methyl]thieno[3,2-d]pyrimidin-4-amine], the results for the IC50 in experiment [1] and in experiment [2] were over 2000 nM and 2000 to 3000 nM, respectively.
With `Cc1c(C2CCNC2)sc2c(NCc3ccco3)nc(Cl)nc12` (centres unmarked) [Cpd 57, 2-chloro-N-[(furan-2-yl)methyl]-7-methyl-6-(pyrrolidin-3-yl)thieno[3,2-d]pyrimidin-4-amine], the “IC50 (average, total ATXN3 protein)” value in experiment [1] was “inactive”. Besides, the “IC50 (exon 4 skipping in ATXN3 pre-mRNA)” value in experiment [2] is “inactive”.
As to `Cc1c(C[C@@H](C)CN)sc2c(NCc3ccco3)nc(Cl)nc12` [Cpd 72, 6-[(2R)-3-amino-2-methylpropyl]-2-chloro-N-[(furan-2-yl)methyl]-7-methylthieno[3,2-d]pyrimidin-4-amine], the IC50 in experiment [1] was over 2000 nM; in experiment [2], 1500 to 2000 nM.
As to `CC[C@H](N)Cc1sc2c(NCc3ccns3)nc(Cl)nc2c1C` [Cpd 62, 6-[(2S)-2-aminobutyl]-2-chloro-7-methyl-N-[(1,2-thiazol-5-yl)methyl]thieno[3,2-d]pyrimidin-4-amine], the IC50 in experiment [1] and in experiment [2] was at most 500 nM each time.
Consider `C[C@H](N)Cc1sc2c(NCc3cccs3)nc(Cl)nc2c1C1CC1` [Cpd 86, 6-[(2S)-2-aminopropyl]-2-chloro-7-cyclopropyl-N-[(thiophen-2-yl)methyl]thieno[3,2-d]pyrimidin-4-amine], for which the IC50 in experiment [1] and in experiment [2] was at most 500 nM in each case.
